Experimental data from PMC12680861, “Comparative analysis of LJ-4378 and tirzepatide in mouse models of obesity and weight regain” (Archives of Pharmacal Research, 2025).

Columns and labels:
WR mice = test: WR model: indirect calorimetry and adipose immunoblot after treatment cessation; format: in vivo, C57BL/6 J male mice
Text: To assess post-treatment weight rebound (WR), the mice previously treated with vehicle, LJ-4378, or TZP were maintained on HFD for an additional 4 weeks following treatment cessation. Treatment protocols for the WR groups were identical to those of the HFD groups. In total, nine experimental groups were established: NCD + CTL, NCD + LJ, NCD + TZP; HFD + CTL, HFD + LJ, HFD + TZP; and WR + CTL, WR + LJ, WR + TZP. The volume of oxygen consumed (VO2), carbon dioxide produced (VCO2), respiratory exchange ratio (RER), energy expenditure, activity, and food intake were measured with PhenoMaster (TSE Systems, Bad Homburg, Germany). Indirect calorimetry was performed under controlled conditions, with a stable ambient temperature of 24 °C and a 12 h light/12-h dark cycle. Mice fed HFD were administered vehicle, LJ-4378, or TZP for 14 days, and the last 2 days of treatment were conducted during indirect calorimetry analysis. The WR model was examined by indirect calorimetry after 2 and 4 weeks of the weight regaining phase.
For protein extraction, we utilized PRO-RERP Protein Extraction Solution (17081, iNtRON Biotechnology, Gyeonggi-do, Korea), supplemented with […] Protease Inhibitor (S8820, Sigma, St. Louis, MO, USA) and PhosSTOP phosphatase inhibitor (#4906837001, Roche, Basel, Switzerland). Protein concentrations were determined using the Pierce BCA protein assay Kit (#23227, Thermo Fisher, Waltham, Massachusetts, USA) by measuring absorbance at 562 nm with a MultiSkan GO spectrophotometer (Thermo Fisher). The quantified proteins were loaded and separated in 12% SDS-PAGE gels and transferred to polyvinylidene difluoride (PVDF) membranes (Bio-Rad, Hercules, CA, USA). Membranes were blocked in 5% bovine serum albumin or skim milk in Tris-buffered saline with 0.1% Tween 20 (TBST) for 1 h, followed by overnight incubation with primary antibodies. The next day, membranes were washed 3 times with TBST and incubated for 1 h with horseradish peroxidase (HRP)-conjugated secondary antibody: Goat anti-rabbit (1:3000, #31460, Thermo Fisher) and Goat anti-Mouse IgG (1:3000, 115–035-174, Jackson ImmunoResearch). After secondary antibody incubation, membranes were washed 3 times with TBST and detected with the Fusion Solo chemiluminescence imaging system (Vilber Lourmat, France). EvolutionCapt (version 17.03) software and the ImageJ (National Institutes of Health, Bethesda, MD, USA) program were used for analysis and to quantify the protein level.

[1] = Tissue partition coefficient extrapolated from rat via plasma unbound fractions
Procedure: (§1) When calculating KP,T for LJ-4378 in […], Eq. (1) was used:1 KP,T=CT,ss/Cp,ss where CT,ss and Cp,ss represented the tissue and plasma concentrations at 270 min after the initiation of LJ-4378 infusion. In addition, under the free-drug hypothesis, the KP,T can be expressed as the ratio of the unbound fractions in plasma ( fup ) and tissue ( fu,T ) [Eq. (2)]. Given similar interspecies values of tissue unbound fraction (Poulin and Theil [2000]), the rat KP,T values were extrapolated to those in mice and humans using the following Eq. (3):2 KP,T=fup/fu,T 3 KP,T,extrapolated=KP,T,rat×fup/fup,rat

mice = test: Serum markers of hepatic, renal and cardiac toxicity; format: in vivo; conditions: 1 mg/kg, 2 weeks
Procedure: Serum aspartate aminotransferase (AST), alanine aminotransferase (ALT), blood urea nitrogen (BUN), Creatinine, Creatine kinase MB (CKMB), and lactate dehydrogenase (LDH) levels were analyzed with Fujifilm Dri-Chem 3500 s (Fujifilm, Kanagawa, Japan) according to the manufacturer’s instructions. The slides GOT/AST-P III, GPT/ALT-P III, BUN-P III, CRE-P III, CKMB-P, and LDH-P III were used.
a-f. Serum levels of aspartate transaminase (AST), alanine transaminase (ALT), blood urea nitrogen (BUN), creatinine, creatine kinase MB (CKMB), and lactate dehydrogenase (LDH) in 2 weeks of LJ-4378 (1mg/kg) treatment in mice. n = 3. Statistical significance was determined using an unpaired two-tailed t-test.

[2] = Steady state tissue partition coefficient after I.V. infusion; format: in vivo, SD rats
Procedure: In this study, steady state tissue partition coefficients ( KP,T , i.e., the ratio of tissue to plasma concentrations in steady state) Eq. (1) were determined for LJ-4378 in SD rats. […] Therefore, to ensure a steady state condition, rats received I.V. infusion (i.e., infusion solution, 5% DMSO in normal saline; delivery rate, 10 µL/min; infusion rate, 0.31 µg/µL; total dose of LJ-4378, 0.837 mg per rat) for 270 min (i.e., the time exceeding five times the half-life). Blood samples (~ 150 µL) were collected from the animal at every 10 min from 240 to 270 min for the confirmation of the steady state of the compound. At completion of the last blood collection, rats were sacrificed by decapitation, and four representative tissues (i.e., gonadal adipose, brain, lung, and liver) were harvested. Tissues were then washed four times with ice-Dulbecco’s phosphate-buffered saline (DPBS), weighed, and homogenized in two volumes of DPBS using an Ultra Turrax homogenizer (IKA, Staufen, Germany). Aliquots (50 µL) of plasma and tissue homogenate were mixed with 200 µL ice-cold acetonitrile containing propranolol (100 ng/mL, internal standard). After vortex mixing for 10 min, the mixture was centrifuged at 16,100 × g for 5 min at 4 °C, and 10 µL of the supernatant was injected directly onto the HPLC–MS/MS system. The concentration of LJ-4378 in the biological sample was quantified on an Agilent 1200 HPLC coupled to an API 3200 mass spectrometer with a Phenomenex Luna C18(2) column (3 µm, 100 Å, 50 × 2 mm). Chromatography was performed under isocratic conditions with 80% acetonitrile containing 0.1% formic acid (mobile phase A) and 20% water containing 0.1% formic acid (mobile phase B) at a flow rate of 0.4 mL/min.
as §1

[3] = two weeks after treatment cessation
[4] = SD rats (observed), I.V. infusion 270 min

In the case of `CCCCC#Cc1nc(N)c2ncn([C@@H]3SC[C@@H](O)[C@H]3O)c2n1` [LJ-4378], the “P-HSL and mitochondrial proteins in BAT and iWAT, versus WR controls and TZP” value (WR mice; 2 weeks after treatment cessation) is reported as “higher levels”, the “energy expenditure, ANCOVA adjusted for body mass, versus vehicle or TZP” value (WR mice; 2 weeks post-treatment, WR) is reported as “higher energy expenditure” and the “elevated energy expenditure after 4 weeks of WR” value (WR mice; 4 weeks post-treatment) is reported as “no longer evident”. The “VO2, VCO2 and energy expenditure compared with TZP-treated group” value (WR mice; [3]) was “significantly higher”, the “VO2, VCO2 and energy expenditure compared with WR controls” value (WR mice; [3]) was “elevated” and the “Steady state tissue partition coefficient (KP,T), Adipose” value ([1]; Humans (extrapolated)) was 0.200. For the same compound, the “Steady state tissue partition coefficient (KP,T), Brain” value ([1]; Humans (extrapolated)) was 0.0443, the “Steady state tissue partition coefficient (KP,T), Liver” value ([1]; Humans (extrapolated)) was 1.04 and the “Steady state tissue partition coefficient (KP,T), Lungs” value ([1]; Humans (extrapolated)) was 0.540. The “Steady state tissue partition coefficient (KP,T), Adipose” value ([1]; Mice (extrapolated)) was 0.197, the “Steady state tissue partition coefficient (KP,T), Brain” value ([1]; Mice (extrapolated)) was 0.0437 and the “Steady state tissue partition coefficient (KP,T), Liver” value ([1]; Mice (extrapolated)) was 1.03. For the same compound, the “Steady state tissue partition coefficient (KP,T), Lungs” value ([1]; Mice (extrapolated)) was 0.533, the “hepatic, renal, and cardiac injury markers (AST, ALT, BUN, creatinine, CKMB, LDH)” value (mice) was “no evidence of organ toxicity” and the “Steady state tissue partition coefficient (KP,T), Adipose” value [2, 4] was 0.0843 ± 0.00653. For the same compound, the “Steady state tissue partition coefficient (KP,T), Liver” value [2, 4] was 0.440 ± 0.194, the “Steady state tissue partition coefficient (KP,T), Lungs” value [2, 4] was 0.228 ± 0.0793 and the “partitioning in adipose tissue relative to brain” value ([2]; SD rats, steady state) was “over four-fold higher partitioning”.
